In patent publication EP4527828A1, “BIPHENYL COMPOUND, PHARMACEUTICAL COMPOSITION, METHOD FOR PREPARING SAME, AND USE THEREOF” (Longivitron (Suzhou) Biotechnology Co., Ltd, priority 2022, dated 2023):
Like-named read-outs stand apart in the source and are kept apart here.

Key:
mouse melanoma B16F10 = format: in vivo; details: 15 days
Procedure: (1) 43 8-week-old female C57B/L mice were selected and divided into 5 cages. One preserved B16F10 tumor-bearing female C57L mouse was sacrificed by cervical dislocation. 75% alcohol was sprayed on the skin of the mouse in a laminar flow cabinet, and the tumor tissue of the tumor-bearing mouse was separated by sterilized surgical instruments and cut into a sterilized 5 mL homogenizer with ophthalmic scissors. The tumor tissue was slowly milled on ice to form a tumor fluid. The number of cells was 6.85 × 10^7 cells/mL as counted with a BioRad counting instrument. The tumor fluid was placed in an Erlenmeyer flask in an ice bath for later use. The tumor fluid was evenly aspirated using a 1 mL sterile syringe and inoculated 0.2 mL/C57/L mouse. After the inoculation was completed, the mice continued to be fed under the initial feeding conditions.
(2) Animal grouping and administration: On the second day after tumor fluid inoculation of C57B/L mice, 43 mice were randomly grouped: 10 mice in a control group, 8 mice in a Compound 4-20 mg/kg group, 8 mice in a Compound 4-30 mg/kg group, 8 mice in a Compound 4-40 mg/kg group, and 9 mice in a positive control drug cyclophosphamide CTX-100 mg/kg group. The mice were weighed and administered.
(3) Drug preparation: The corresponding amounts of the drugs were weighed according to the final concentrations of the experimental groups. The drugs of the Compound 4-20 mg/kg group and the Compound 4-30 mg/kg group were prepared with 0.25% CMCNa + Tween 80 and administered orally once a day. The drug of Compound 4-40 mg/kg was prepared with normal saline + Tween 80 and administered intraperitoneally. CTX was prepared with normal saline and administered intraperitoneally once. The mice in the control group were given 0.25% CMCNa solution orally.
(4) The animals were sacrificed, and the tumors were separated and weighed. The animals in each group were treated immediately 1 h after administration on the last day and weighed, and the tumor tissue was weighed.

Human LAG3 protein = molecular target: T1, Human LAG3 protein (Homo sapiens, UniProt P18627); experiment: SPR interaction assay, CM5 chip amino coupling, human LAG3; format: binding; details: for Rmax / Kd / Note / kon / koff: ligand Human LAG3 protein; for Kd: Compound 9 fitted in steady-state mode; for Note: bound or not bound; for kon: read-out: Ka; for koff: read-out: Kd
T1 sequence (P18627 23-525): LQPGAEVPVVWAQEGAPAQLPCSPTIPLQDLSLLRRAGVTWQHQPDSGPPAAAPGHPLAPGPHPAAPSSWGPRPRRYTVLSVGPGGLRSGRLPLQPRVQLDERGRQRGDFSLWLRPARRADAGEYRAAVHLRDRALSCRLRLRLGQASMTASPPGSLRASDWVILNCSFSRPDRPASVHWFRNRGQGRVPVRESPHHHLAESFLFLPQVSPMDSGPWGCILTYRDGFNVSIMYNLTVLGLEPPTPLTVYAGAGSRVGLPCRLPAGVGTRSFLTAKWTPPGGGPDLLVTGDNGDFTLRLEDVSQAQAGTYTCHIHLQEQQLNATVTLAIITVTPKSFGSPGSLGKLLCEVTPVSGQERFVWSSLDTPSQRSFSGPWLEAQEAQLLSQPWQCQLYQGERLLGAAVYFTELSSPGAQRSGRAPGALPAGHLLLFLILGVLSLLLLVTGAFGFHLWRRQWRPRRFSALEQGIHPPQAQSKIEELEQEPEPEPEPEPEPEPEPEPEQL
From the text: A surface plasmon is an electromagnetic wave on a metal surface and is generated by the interaction of photons and electrons which are freely vibrated. Surface plasmon resonance (SPR) is an optical phenomenon that occurs on the surfaces of two media, and such a phenomenon can be induced by photons or electrons. When light enters an optically thinner medium from an optically denser medium, the phenomenon of total reflection occurs, and an evanescent wave is generated and enters the optically thinner medium. When the totally reflected evanescent wave meets the plasmon wave on the metal surface, resonance may occur, the energy of the reflected light decreases, and a resonance peak occurs on the energy spectrum of the reflected light. Such a resonance is called surface plasmon resonance. The angle of incidence causing the surface plasmon resonance is called an SPR angle. An SPR biosensor provides a sensitive, non-labeled detection technique for monitoring intermolecular interactions in real time. The sensor detects the change in the SPR angle, and the SPR is related to the refractive index of the metal surface. When an analyte binds to the chip surface, the refractive index of the chip surface changes, thus causing the change in the SPR angle. This is the basic principle for the SPR biosensor to detect intermolecular interactions in real time. During the interaction analysis, the change in the SPR angle is recorded on the sensorgram in real time.
Through the information query, the theoretical isoelectric point of the LAG3 protein is about 9.82, and the amino coupling method was contemplated to immobilize the protein. Since the main ligands of the LAG3 protein are FGL1 and MHCII proteins, after the LAG3 protein was coupled, the FGL1 protein sampling method was used to verify the protein activity.
Protein coupling buffer solution: 1.05× PBS-P+; 1.02× PBS-P+
Interaction buffer solution: 1.0× PBS-P+, 5% DMSO; 1.0× PBS-P+, 2% DMSO
In this experiment, by using the CM5 chip amino coupling method, the human LAG3 protein was immobilized to the Fc2 or Fc3 channel, and the mouse LAG3 protein was immobilized to the Fc3 or Fc4 channel.
LAG3 protein coupling conditions were as follows: the concentration was about 25 µg/mL, the system was sodium acetate solution with a pH of 5.5, the chip activation time was 420 s, and the blocking time was 420 s.
LAG3 protein coupling conditions were as follows: the concentration was about 50 µg/mL, the system was sodium acetate solution with a pH of 4.5, the chip activation time was 420 s, and the blocking time was 420 s.

[1] = B16F10, 40 mg/kg, table prints po, text says intraperitoneally

Compound	Inhibition rate (mouse melanoma B16F10; B16F10, 20 mg/kg po once a day) [%]	Tumor weight (mouse melanoma B16F10; B16F10, 20 mg/kg po once a day) [g]	Inhibition rate (mouse melanoma B16F10; B16F10, 30 mg/kg po once a day) [%]	Tumor weight (mouse melanoma B16F10; B16F10, 30 mg/kg po once a day) [g]	Inhibition rate (mouse melanoma B16F10; [1]) [%]	Tumor weight (mouse melanoma B16F10; [1]) [g]	interaction with the human LAG3 protein (Human LAG3 protein)	Rmax (Human LAG3 protein) [RU]	Kd (Human LAG3 protein) [µM]	Note (Human LAG3 protein)	kon (Human LAG3 protein) [M⁻¹ s⁻¹]	koff (Human LAG3 protein) [s⁻¹]
CCCCCCOc1ccc2cc1-c1cc(ccc1OCCCCCC)C(=O)CCCCCC2=O [Compound 4]	55.12	1.304 ± 0.623	28.00	2.091 ± 1.199	44.40	1.615 ± 0.495	interacts with the human LAG3 protein	124.7	52.9	Bound	418	0.0221
CCCCCCOc1ccc(C(=O)O)cc1-c1cc(C(=O)NCCCCNC(=O)C(F)(F)F)ccc1OCCCCCC [Compound 8]							interacts with the human LAG3 protein	8.639	7.76	Bound	446	0.00346
